# Data reported in US6225321A (priority 1997, dated 2001).
# Values joined by “and” are separate entries in the source; they are usually repeats but may differ in a detail not shown here. Equal entries are not always repeated. Where two headings read alike, the source gives them in different places.
# Legend:
# human body = experiment: Analgesic duration of sebacoyl dinalbuphine calculated for the human body; type: in vivo; details: 125 μM/23 kg
# Method: Therefore, the analgesic effect could be calculated on 4-5 days at 125 μM/23 kg to human body for sebacoyl dinalbuphine.
# Besides, such parenteral volume was not ideal for a single dose. However, this invention made a development. By diluting a single dose of sebacoyl dinalbuphine in 7.15 ml sesame oil form, parenteral administration could give the analgesic effect maintained 4 to 5 days. In other words, the analgesic effect was extended […] for a single dose of intramuscularly injected sebacoyl dinalbuphine at only 7 ml oil vehicle.
# [1] = Half-life / conversion of dinalbuphine sebacoyl ester in rabbit blood; type: in vitro ADME; details: for Elimination half-life: n = 3, mean ± S.E.
# Method: II. For Rabbit Experiments
# (a) Dinalbuphine ester sebacoyl ester was dissolved in acetonitrile, the concentration was 5.2 mg/ml.
# (b) 150 ml of whole blood collected from rats given dinalbuphine sebacoyl ester, and anticoagulant was added.
# [2] = Half-life / conversion of dinalbuphine sebacoyl ester in dog blood; type: in vitro ADME; details: for Elimination half-life: n = 3, mean ± S.E.
# Method: (a) Dinalbuphine sebacoyl ester was dissolved in acetonitrile, the concentration was 12.5 mg/ml.
# (b) 200 ml of whole blood collected from rats given dinalbuphine sebacoyl ester, and anticoagulant was added.
# [3] = Half-life / conversion of dinalbuphine sebacoyl ester in human blood; type: in vitro ADME; details: for Elimination half-life: n = 3, mean ± S.E.
# Method: IV. For Human Experiments
# (a) Dinalbuphine sebacoyl ester was dissolved in acetonitrile, the concentration was 10 mg/ml.
# (b) 250 ml of whole blood collected from rats given dinalbuphine sebacoyl ester, and anticoagulant was added.
# [4] = Pharmacokinetic study of long acting preparation in Beagle dogs; type: in vivo, Beagle dog; details: for CL/F: read-out: CLt (converted); for Vd/F: read-out: Vss
# Method: Six Beagle dogs were used. Five Beagle dogs were intramuscularly injected with 30 mg/kg long acting sebacoyl dinalbuphine ester parenteral administration respectively, and another one was injection with 100 mg/kg long acting sebacoyl dinalbuphine ester oily parenteral administration. Blood samples were collected through the vein in front limb of dogs at 1, 2, 6, 24, 30, 48, 54, 72, 78, 96, 102, 120, 168, 192 hours. […] Relationship between time and concentration was analyzed by PCNONLIN computer program. Two compartment model and pharmacokinetic parameters were calculated to depicted absorption, distribution, metabolism, and excretion of drugs in dogs.
# [5] = Half-life / conversion of dinalbuphine sebacoyl ester in rat blood; type: in vitro ADME; details: for Elimination half-life: n = 3, mean ± S.E.
# Method: (a) Dinalbuphine sebacoyl ester(SDN) was dissolved in acetonitrile, the concentration was 7.75 mg/ml.
# (b) […] of whole blood was collected from rats given dinalbuphine sebacoyl ester, and anticoagulant was added.
# [6] = Table 7, Dog 2, Dose 24.3 mg/kg
# [7] = Table 7, Dog 2, Dose 81.0 mg/kg
# [8] = dog, plasma, im, 24.3 mg/kg, Table 7, Dog 2, Dose 24.3 mg/kg
# [9] = dog, plasma, im, 30 mg/kg, Mean of 5 dogs, 30 mg/kg i.m.
# [10] = dog, plasma, im, 81 mg/kg, Table 7, Dog 2, Dose 81.0 mg/kg
# [11] = individual Dog 1 to Dog 5, lines in this order, 30 mg/kg i.m., listed as SDN, 30 mg/kg
smiles,measurement,setting,value
O=C(CCCCCCCCC(=O)Oc1ccc2c3c1O[C@H]1[C@@H](O)CC[C@@]4(O)[C@@H](C2)N(CC2CCC2)CC[C@]314)Oc1ccc2c3c1O[C@H]1[C@@H](O)CC[C@@]4(O)[C@@H](C2)N(CC2CCC2)CC[C@]314 [sebacoyl dinalbuphine ester],duration of analgesic effect calculated for human body,human body,4 to 5 days
same,Elimination half-life,[1]; rabbit plasma,0.116 ± 0.0005 h
same,Elimination half-life,[1]; rabbit red blood cell,0.437 ± 0.08 h
same,Elimination half-life,[1]; rabbit whole blood,0.248 ± 0.0217 h
same,converted time of 90% into Nalbuphine,[1]; rabbits,25 min
same,half life,"[1]; rabbits, HPLC",7.0 min
same,Elimination half-life,[2]; dog plasma,0.463 ± 0.0083 h
same,Elimination half-life,[2]; dog red blood cell,0.557 ± 0.0233 h
same,Elimination half-life,[2]; dog whole blood,0.508 ± 0.013 h
same,converted time of 90% into Nalbuphine,[2]; dogs,95 min
same,half life,"[2]; dogs, HPLC",0.463 h
same,Elimination half-life,[3]; human plasma,9.0 ± 0.4 min
same,Elimination half-life,[3]; human red blood cell,7.7 ± 0.4 min
same,Elimination half-life,[3]; human whole blood,8.8 ± 0.4 min
same,converted time of 90% into Nalbuphine,[3]; humans,30 min
same,half life,"[3]; humans, HPLC",9.0 min
same,A,"[4]; Mean of 5 dogs, 30 mg/kg i.m.",15.0 µg/mL
same,AUMC,"[4]; Mean of 5 dogs, 30 mg/kg i.m.",983.2 h^2 μg/ml
same,Abs. time,"[4]; Mean of 5 dogs, 30 mg/kg i.m.",92.6 h
same,B,"[4]; Mean of 5 dogs, 30 mg/kg i.m.",0.32 µg/mL
same,Vc,"[4]; Mean of 5 dogs, 30 mg/kg i.m.",14.84 L/kg
same,k12,"[4]; Mean of 5 dogs, 30 mg/kg i.m.",8.51 h⁻¹
same,k21,"[4]; Mean of 5 dogs, 30 mg/kg i.m.",0.28 h⁻¹
same,ko,"[4]; Mean of 5 dogs, 30 mg/kg i.m.",180.6 µg/kg/h
same,α,"[4]; Mean of 5 dogs, 30 mg/kg i.m.",9.98 h⁻¹
same,A,[4]; [6],14.1 µg/mL
same,AUC/D,[4]; [6],0.478 kg·h/mL
same,AUMC,[4]; [6],915 h^2 ng/ml
same,Abs. time,[4]; [6],95.6 h
same,B,[4]; [6],0.22 µg/mL
same,Vc,[4]; [6],10.21 L/kg
same,k12,[4]; [6],5.53 h⁻¹
same,k21,[4]; [6],0.13 h⁻¹
same,ko,[4]; [6],149.9 µg/kg/h
same,α,[4]; [6],6.85 h⁻¹
same,A,[4]; [7],59.0 µg/mL
same,AUC/D,[4]; [7],0.488 kg·h/mL
same,AUMC,[4]; [7],5026 h^2 ng/ml
same,Abs. time,[4]; [7],168.0 h
same,B,[4]; [7],0.51 µg/mL
same,Vc,[4]; [7],10.21 L/kg
same,k12,[4]; [7],8.99 h⁻¹
same,k21,[4]; [7],0.11 h⁻¹
same,ko,[4]; [7],354.2 µg/kg/h
same,α,[4]; [7],10.73 h⁻¹
same,AUC,[4]; [8],11900 ng·h/mL
same,CL/F,[4]; [8],1.21 mL/h/kg
same,bioavailability,"[4]; dog, plasma, im, 24.3 mg/kg, Table 7, Dog 2, Dose 24.3 mg/kg, read-out: F",59%
same,MRT,"[4]; dog, plasma, im, 24.3 mg/kg, Table 7, Dog 2, Dose 24.3 mg/kg, read-out: MRT",78.8 h
same,Vd/F,[4]; [8],450 L/kg
same,k el,"[4]; dog, plasma, im, 24.3 mg/kg, Table 7, Dog 2, Dose 24.3 mg/kg, read-out: k10 (converted)",0.000336 s⁻¹
same,half-life,"[4]; dog, plasma, im, 24.3 mg/kg, Table 7, Dog 2, Dose 24.3 mg/kg, read-out: t1/2,α (converted)",0.1 h
same,half-life,"[4]; dog, plasma, im, 24.3 mg/kg, Table 7, Dog 2, Dose 24.3 mg/kg, read-out: t1/2,β (converted)",30.6 h
same,k el,"[4]; dog, plasma, im, 24.3 mg/kg, Table 7, Dog 2, Dose 24.3 mg/kg, read-out: β (converted)",6.39e-06 s⁻¹
same,AUC,[4]; [9],13600 ng·h/mL
same,CL/F,[4]; [9],1.22 mL/h/kg
same,Cmax,"[4]; dog, plasma, im, 30 mg/kg, Mean of 5 dogs, 30 mg/kg i.m., read-out: Cmax",149 ng/mL
same,bioavailability,"[4]; dog, plasma, im, 30 mg/kg, Mean of 5 dogs, 30 mg/kg i.m., read-out: F",63.1%
same,MRT,"[4]; dog, plasma, im, 30 mg/kg, Mean of 5 dogs, 30 mg/kg i.m., read-out: MRT",73.2 h
same,Vd/F,[4]; [9],574 L/kg
same,k el,"[4]; dog, plasma, im, 30 mg/kg, Mean of 5 dogs, 30 mg/kg i.m., read-out: k10 (converted)",0.000339 s⁻¹
same,half-life,"[4]; dog, plasma, im, 30 mg/kg, Mean of 5 dogs, 30 mg/kg i.m., read-out: t1/2,α (converted)",0.09 h
same,half-life,"[4]; dog, plasma, im, 30 mg/kg, Mean of 5 dogs, 30 mg/kg i.m., read-out: t1/2,β (converted)",27.7 h
same,k el,"[4]; dog, plasma, im, 30 mg/kg, Mean of 5 dogs, 30 mg/kg i.m., read-out: β (converted)",8.33e-06 s⁻¹
same,AUC,"[4]; dog, plasma, im, 30 mg/kg, individual Dog 1 to Dog 5, lines in this order, 30 mg/kg i.m.",9730 ng·h/mL
same,MRT,"[4]; dog, plasma, im, 30 mg/kg, individual Dog 1 to Dog 5, lines in this order, 30 mg/kg i.m., read-out: MRT",84.3 h
same,AUC,[4]; [10],36200 ng·h/mL
same,CL/F,[4]; [10],1.64 mL/h/kg
same,Cmax,"[4]; dog, plasma, im, 81 mg/kg, Table 7, Dog 2, Dose 81.0 mg/kg, read-out: Cmax",204 ng/mL
same,bioavailability,"[4]; dog, plasma, im, 81 mg/kg, Table 7, Dog 2, Dose 81.0 mg/kg, read-out: F",73.4%
same,MRT,"[4]; dog, plasma, im, 81 mg/kg, Table 7, Dog 2, Dose 81.0 mg/kg, read-out: MRT",127 h
same,Vd/F,[4]; [10],861 L/kg
same,k el,"[4]; dog, plasma, im, 81 mg/kg, Table 7, Dog 2, Dose 81.0 mg/kg, read-out: k10 (converted)",0.000456 s⁻¹
same,half-life,"[4]; dog, plasma, im, 81 mg/kg, Table 7, Dog 2, Dose 81.0 mg/kg, read-out: t1/2,α (converted)",0.07 h
same,half-life,"[4]; dog, plasma, im, 81 mg/kg, Table 7, Dog 2, Dose 81.0 mg/kg, read-out: t1/2,β (converted)",41.9 h
same,k el,"[4]; dog, plasma, im, 81 mg/kg, Table 7, Dog 2, Dose 81.0 mg/kg, read-out: β (converted)",4.72e-06 s⁻¹
same,bioavailability,"[4]; dog, plasma, im, Beagle dogs, intramuscular, read-out: bioavailability",~63%
same,half-life,"[4]; dog, plasma, im, Beagle dogs, intramuscular, read-out: half life for excretion (converted)",~30 h
same,A,[4]; [11],20.9 μg/ml and 14.1 μg/ml (2×) and 9.5 μg/ml and 16.5 μg/ml
same,AUMC,[4]; [11],934.4 h^2 μg/ml and 915.0 h^2 μg/ml and 886.2 h^2 μg/ml and 1217.4 h^2 μg/ml and 1063.0 h^2 μg/ml
same,Abs. time,[4]; [11],164.5 h and 95.6 h (2×) and 49.3 h and 58.0 h
same,B,[4]; [11],0.46 µg/mL and 0.22 µg/mL and 0.32 µg/mL and 0.36 µg/mL and 0.21 µg/mL
same,Cmax,[4]; [11],59 ng/mL and 112 ng/mL and 197 ng/mL and 255 ng/mL and 123 ng/mL
same,F,[4]; [11],87.9% and 40.4% and 59.6% and 68.8%
same,MRT,[4]; [11],61.1 h and 62.7 h and 79.1 h
same,Vc,[4]; [11],13.88 L/kg and 10.21 L/kg and 14.95 L/kg and 10.65 L/kg and 24.50 L/kg
same,Vss,[4]; [11],360.9 L/kg and 428.1 L/kg and 303.6 L/kg and 1325 L/kg
same,k12,[4]; [11],6.16 h⁻¹ and 5.53 h⁻¹ and 21.55 h⁻¹ and 3.89 h⁻¹ and 5.43 h⁻¹
same,k21,[4]; [11],0.25 h⁻¹ and 0.13 h⁻¹ and 0.78 h⁻¹ and 0.14 h⁻¹ and 0.10 h⁻¹
same,ko,[4]; [11],129.9 µg/kg/h and 149.9 µg/kg/h and 199.1 µg/kg/h and 249.5 µg/kg/h and 174.9 µg/kg/h
same,"t1/2,β",[4]; [11],10.94 h and 30.61 h and 28.64 h and 30.99 h and 37.26 h
same,α,[4]; [11],8.54 h⁻¹ and 6.85 h⁻¹ and 23.02 h⁻¹ and 4.76 h⁻¹ and 6.74 h⁻¹
same,order of absorption,"[4]; injection oil vehicle, intramuscular",zero order
same,kinetic linearity with dose,[4]; two doses in the same dog,linear kinetic
same,Elimination half-life,[5]; rat plasma,2.8 min
same,Elimination half-life,[5]; rat red blood cell,2.3 ± 0.6 min
same,Elimination half-life,[5]; rat whole blood,2.2 ± 0.5 min
same,converted time of 90% into Nalbuphine,[5]; rats,10 min
same,half life,"[5]; rats, HPLC",2.8 min
